Measurements: ChEMBL document CHEMBL1158050, “Minor sesquiterpenes with new carbon skeletons from the brown alga Dictyopteris divaricata” (J Nat Prod, 2006)

How the values were obtained:
Assay type in all cases: functional, cell-based
BGC-823 = assay: Cytotoxicity against human BGC-823 cells by MTT assay
HCT-8 = assay: Cytotoxicity against human HCT8 cells by MTT assay
MCF7 = assay: Cytotoxicity against human MCF7 cells by MTT assay
A549 = assay: Cytotoxicity against human A549 cells by MTT assay
Bel-7402 = assay: Cytotoxicity against human Bel-7402 cells by MTT assay

Measured: IC50

CC(=O)[C@@H]1C[C@]2(O)[C@@H]([C@H]1O)[C@H](C(C)C)CC[C@H]2C
> 10 µg/mL: all assays above

CC(=O)C1=C2[C@H](C(C)C)CC[C@@H](C)[C@@]2(O)CC1=O
> 10 µg/mL: all assays above

CC(=O)C1=C2[C@@H](C)CC[C@H](C(C)C)[C@@]2(O)CC1=O
> 10 µg/mL: all assays above

CC(=O)[C@H]1C[C@]2(O)[C@@H]([C@@H]1O)[C@H](C(C)C)CC[C@H]2C
> 10 µg/mL: all assays above

CC(=O)C1=C[C@@H]2[C@H](C(C)C)CC[C@@H](C)[C@]2(O)C1
> 10 µg/mL: all assays above

CC(C)[C@@H]1CC[C@@H](C)[C@@]2(O)C1=CC(=O)[C@@H]2C(C)O (stereo not given in full)
> 10 µg/mL: all assays above
